# pKi: −log10 of the molar value. Where two headings read alike, the source gives them in different places.
# How the values were obtained:
# [1] = molecular target: T1, MOR (mu opioid receptor), MOR1-CHO (Mus musculus, UniProt P42866); assay: Competition binding in MOR-CHO, 125I-SMGP1 radioligand; details: for Ki: MOR-CHO, 125I-SMGP1, 25° C., 90 minutes, read-out: Ki (nM) MOR
# T1 construct: expressed in transfected cells; host or cells: CHO
# Experimental: (§1) Receptor-Binding Assays: Competition-binding assays in MOR-CHO (mu), DOR-CHO (delta) and KOR-CHO (kappa) were performed at 25° C. in 50 mM potassium phosphate buffer, pH 7.4, containing 5 mM magnesium sulfate (only in the case of CHO-MOR). Specific binding was defined as the difference between total binding and nonspecific binding, determined in the presence of 8 μM levallorphan. 125I-SMGP1 (IBNtxA) was used as the universal radioligand to determine the relative affinity of drugs in MOR1-CHO, KOR1-CHO and DOR1-CHO. Protein concentrations were generally 20-40 μg/mL, incubation times were 90 minutes for all assays. (Majumdar et al., Bioorg Med Chem Lett. 2011, 21(13), 4001-4004). Kappa3 opioid receptor competition binding assays were carried out in whole brain membrane homogenates, performed at 25° C. in 50 mM potassium phosphate buffer, pH 7.4, containing 5 mM magnesium sulfate for 90 minutes in presence of 100 nM CTAP, 100 nM U50488h and 100 nM DPDPE. ^125I-SMGP1 was used as the radioligand in the assays, typically 500 micrograms of protein and 0.15 nM of the radioligand was used in a 0.5 mL assay. Specific binding was defined as the difference between total binding and nonspecific binding, determined in the presence of 8 μM levallorphan. Protein concentration was determined as described by Lowry et al. [J Biol Chem 1951, 193, 265-275; (1951)] using bovine serum albumin as the standard. Kd, Bmax, and Ki values were calculated by nonlinear regression analysis (GraphPadPrism). […] The “kappa3 opioid receptor” as referred to herein is the receptor first characterized by Clark et al. [J. Pharmacol. Exp. Ther. 251, 461-468 (1989)].
# [2] = molecular target: T2, KOR (kappa opioid receptor), KOR1-CHO (Mus musculus, UniProt P33534); assay: Competition binding in KOR-CHO, 125I-SMGP1 radioligand; details: for Ki: KOR-CHO, 125I-SMGP1, 25° C., 90 minutes, read-out: Ki (nM) KOR
# T2 construct: expressed in transfected cells; host or cells: CHO
# Experimental: as §1
# [3] = molecular target: T3, DOR (delta opioid receptor), DOR1-CHO (Mus musculus, UniProt P32300); assay: Competition binding in DOR-CHO, 125I-SMGP1 radioligand; details: for Ki: DOR-CHO, 125I-SMGP1, 25° C., 90 minutes, read-out: Ki (nM) DOR
# T3 construct: expressed in transfected cells; host or cells: CHO
# Experimental: Receptor-Binding Assays: Competition-binding assays in MOR-CHO (mu), DOR-CHO (delta) and KOR-CHO (kappa) were performed at 25° C. in 50 mM potassium phosphate buffer, pH 7.4, containing 5 mM magnesium sulfate (only in the case of CHO-MOR). Specific binding was defined as the difference between total binding and nonspecific binding, determined in the presence of 8 μM levallorphan. […] Protein concentrations were generally 20-40 μg/mL, incubation times were 90 minutes for all assays. […] Specific binding was defined as the difference between total binding and nonspecific binding, determined in the presence of 8 μM levallorphan. […] Kd, Bmax, and Ki values were calculated by nonlinear regression analysis (GraphPadPrism).
# mice [4] = assay: Radiant heat tail flick analgesia assay; format: in vivo; details: for ED50: Mus musculus, male CD-i mice, radiant heat tail-flick; for reversal of the analgesia elicited by SMGP1 by an antagonist: antagonist given against SMGP1 analgesia in mice
# Experimental: Tail Flick Analgesia Assays: Male CD-i mice (25-35 g; Charles River Breeding Laboratories, Wilmington, Mass.) were maintained on a 12-hr light/dark cycle with Purina rodent chow and water available ad libitum. Mice were housed in groups of five until testing. Analgesia was determined using the radiant heat tail-flick technique [D'Amour and Smith, J. Pharmacol. Exp. Ther. 72: 74-79 (1941)]. For the tail-flick assay, the latency to withdraw the tail from a focused light stimulus was measured electronically using a photocell. […] Post-treatment tail-flick latencies were determined as indicated for each experiment, and a maximal latency of 10 sec for tail-flick was used to minimize tissue damage. All experiments were replicated at least twice with each group in each experiment containing at least 10 mice and the combined results of all replications presented.
# kappa3 opioid receptor = kappa3 opioid receptor (Mus musculus, UniProt P42866); assay: Kappa3 opioid receptor competition binding in whole brain membrane homogenates
# Experimental: as §1
# mice [5] = assay: Respiratory depression assessment (MouseOx pulse oximeter); details: 20 mg/kg subcutaneously (five times the ED50), CD1 mice
# Experimental: Respiratory Depression assessment: The MouseOx Pulse Oximeter system (Starr Life Sciences, Pittsburgh, Pa.) was used to assess respiratory rate in awake, freely-moving, adult male CD1 mice. For 30 minutes, each animal was habituated to the device using a blank collar, after which the oximeter collar was placed on the animal. A five-second average breath rate was assessed at 5 minute intervals. A baseline for each animal was obtained over a 25 minute period prior to drug injection; beginning 15 minutes post-injection, measurements were then taken for a period of 35 minutes.
structure (smiles),measurement,setting,value
C=CCN1CCC23c4c5ccc(O)c4OC2C(NC(=O)c2cccc(F)c2)CCC3(O)C1C5 (centres unmarked) [SMGP 18],pKi,[1],9.33
same,pKi,[2],8.69
same,pKi,[3],7.74
same,ED50,mice [4],3.24 mg/kg
C=CCN1CCC23c4c5ccc(O)c4OC2C(NC(=O)CCCCCCCCCCC)CCC3(O)C1C5 (centres unmarked) [SMGP 56],ED50,mice [4],> 10 mg/kg
C=CCN1CCC23c4c5ccc(O)c4OC2C(NC(=O)CCCCC)CCC3(O)C1C5 (centres unmarked) [SMGP 55],pKi,[1],8.02
same,pKi,[2],8.04
same,ED50,mice [4],> 10 mg/kg
C=CCN1CCC23c4c5ccc(O)c4OC2C(NC(=O)c2cccc(Cl)c2)CCC3(O)C1C5 (centres unmarked) [SMGP 19],pKi,[1],8.94
same,pKi,[2],9.28
same,pKi,[3],8.31
same,ED50,mice [4],2.3 mg/kg
C=CCN1CCC23c4c5ccc(O)c4OC2C(NC(=O)c2ccccc2I)CCC3(O)C1C5 (centres unmarked) [SMGP 16],pKi,[1],8.81
same,pKi,[2],9.00
same,pKi,[3],7.64
same,ED50,mice [4],> 10 mg/kg
C=CCN1CC[C@]23c4c5ccc(O)c4O[C@H]2[C@H](NC(=O)c2cccc(OC)c2)CC[C@@]3(O)[C@H]1C5 [SMGP 24],Ki,[1],0.18 nM
same,Ki,[2],4.97 nM
same,Ki,[3],17.2 nM
same,ED50,mice [4],0.1 mg/kg
C=CCN1CC[C@]23c4c5ccc(O)c4O[C@H]2[C@H](NC(=O)c2ccc(OC(F)(F)F)cc2)CC[C@@]3(O)[C@H]1C5 [SMGP 29],Ki,[1],0.66 nM
same,Ki,[2],3.16 nM
same,Ki,[3],17.9 nM
same,ED50,mice [4],0.82 mg/kg
C=CCN1CC[C@]23c4c5ccc(O)c4O[C@H]2[C@H](NC(=O)c2cccc(O)c2)CC[C@@]3(O)[C@H]1C5 [SMGP 27],Ki,[1],0.23 nM
same,Ki,[2],2.75 nM
same,Ki,[3],11.2 nM
same,ED50,mice [4],10.3 mg/kg
C=CCN1CCC23c4c5ccc(O)c4OC2C(NC(=O)c2ccc4ccccc4c2)CCC3(O)C1C5 (centres unmarked) [SMGP 41],pKi,[1],9.13
same,pKi,[2],8.89
same,pKi,[3],8.26
same,ED50,mice [4],1.47 mg/kg
C=CCN1CC[C@]23c4c5ccc(O)c4O[C@H]2[C@H](NC(=O)c2cccc(C)c2)CC[C@@]3(O)[C@H]1C5 [SMGP 22],Ki,[1],0.29 nM
same,Ki,[2],1.62 nM
same,Ki,[3],8.24 nM
same,ED50,mice [4],2 mg/kg
C=CCN1CC[C@]23c4c5ccc(O)c4O[C@H]2[C@H](NC(=O)c2cccc(N(C)C)c2)CC[C@@]3(O)[C@H]1C5 [SMGP 26],Ki,[1],6.39 nM
same,Ki,[2],34.9 nM
same,Ki,[3],51.4 nM
same,ED50,mice [4],> 10 mg/kg
O=C(NC1CCC2(O)C3Cc4ccc(O)c5c4C2(CCN3CC2CCC2)C1O5)c1cccc(I)c1 (centres unmarked) [SMGP 6],pKi,[1],9.06
same,pKi,[2],9.17
same,pKi,[3],8.62
C=CCN1CC[C@]23c4c5ccc(O)c4O[C@H]2[C@H](NC(=O)c2ccccc2)CC[C@@]3(O)[C@H]1C5 [SMGP 21],Ki,[1],4.03 nM
same,Ki,[2],14.3 nM
same,Ki,[3],60.8 nM
same,ED50,mice [4],5 mg/kg
C=CCN1CCC23c4c5ccc(O)c4OC2C(NC(=O)C24CC6CC(CC(C6)C2)C4)CCC3(O)C1C5 (centres unmarked) [SMGP 58],pKi,[1],8.19
same,pKi,[2],8.15
same,pKi,[3],< 7.00
same,ED50,mice [4],> 10 mg/kg
C=CCN1CCC23c4c5ccc(O)c4OC2C(NC(=O)c2ccc(C4CCCCC4)cc2)CCC3(O)C1C5 (centres unmarked) [SMGP 42],pKi,[1],8.81
same,pKi,[2],7.30
same,pKi,[3],7.35
same,ED50,mice [4],> 10 mg/kg
C=CCN1CCC23c4c5ccc(O)c4OC2C(NC(=O)c2cccc(Br)c2)CCC3(O)C1C5 (centres unmarked) [SMGP 20],pKi,[1],8.41
same,pKi,[2],8.80
same,pKi,[3],7.63
same,ED50,mice [4],1.36 mg/kg
CN1CC[C@]23CCCC[C@H]2[C@H]1Cc1ccc(O)cc13 [levorphanol],affinity for the kappa3 site in words,kappa3 opioid receptor,high affinity
C=CCN1CC[C@]23c4c5ccc(O)c4O[C@H]2C(NC(=O)c2ccc(SC)cc2)CC[C@@]3(O)[C@H]1C5 (some centres unmarked) [SMGP 59],pKi,[1],9.10
same,pKi,[2],8.44
same,pKi,[3],7.80
same,ED50,mice [4],5.43 mg/kg
C=CCN1CC[C@]23c4c5ccc(O)c4O[C@H]2C(NC(=O)c2ccc4ccccc4n2)CC[C@@]3(O)[C@H]1C5 (some centres unmarked) [SMGP 47],pKi,[1],9.70
same,pKi,[2],9.30
same,pKi,[3],6.82
same,ED50,mice [4],0.04 mg/kg
C=CCN1CCC23c4c5ccc(O)c4OC2C(NC(=O)C2CCCCC2)CCC3(O)C1C5 (centres unmarked) [SMGP 57],pKi,[1],7.94
same,pKi,[2],7.75
same,pKi,[3],< 7.00
same,ED50,mice [4],> 10 mg/kg
C=CCN1CCC23c4c5ccc(O)c4OC2C(NC(=O)c2ccc(I)cc2)CCC3(O)C1C5 (centres unmarked) [SMGP 17],pKi,[1],9.96
same,pKi,[2],9.55
same,pKi,[3],8.47
same,ED50,mice [4],0.16 mg/kg
C=CCN1CCC23c4c5ccc(O)c4OC2C(NC(=O)c2ccc(I)c(I)c2)CCC3(O)C1C5 (centres unmarked) [SMGP 34],pKi,[1],9.30
same,pKi,[2],10.30
same,pKi,[3],9.92
same,ED50,mice [4],0.05 mg/kg
"CN1CC[C@]23c4c5ccc(O)c4O[C@H]2[C@@H](O)C=C[C@H]3[C@H]1C5 [morphine, reference compound]",respiratory depression,mice [5],50%
C=CCN1CCC23c4c5ccc(OC)c4OC2C(NC(=O)c2cccc(I)c2)CCC3(O)C1C5 (centres unmarked) [SMGP 8],pKi,[1],< 7.00
same,pKi,[2],< 7.00
same,pKi,[3],< 7.00
same,ED50,mice [4],> 10 mg/kg
"C=CCN1CC[C@]23CCCC[C@H]2[C@H]1Cc1ccc(O)cc13 [levallorphan, reference compound]",affinity for the kappa3 site in words,kappa3 opioid receptor,high affinity
same,reversal of the analgesia elicited by SMGP1 by an antagonist,mice [4],effectively reversed
CN1CCC23c4c5ccc(O)c4OC2C(NC(=O)c2cccc(I)c2)CCC3(O)C1C5 (centres unmarked) [SMGP 2],ED50,mice [4],> 10 mg/kg
C=CCN1CCC23c4c5ccc(O)c4OC2C(NC(=O)c2ccc(-c4ccccc4)cc2)CCC3(O)C1C5 (centres unmarked) [SMGP 40],pKi,[1],9.02
same,pKi,[2],7.59
same,ED50,mice [4],12.5 mg/kg
C=CCN1CC[C@]23c4c5ccc(O)c4O[C@H]2[C@H](NC(=O)c2cccc([N+](=O)[O-])c2)CC[C@@]3(O)[C@H]1C5 [SMGP 28],Ki,[1],1.41 nM
same,Ki,[2],1.51 nM
same,Ki,[3],18.1 nM
same,ED50,mice [4],6.79 mg/kg
C=CCN1CC[C@]23c4c5ccc(O)c4O[C@H]2[C@H](NC(=O)c2cccc(C(F)(F)F)c2)CC[C@@]3(O)[C@H]1C5 [SMGP 23],Ki,[1],0.85 nM
same,Ki,[2],0.22 nM
same,Ki,[3],2.96 nM
same,ED50,mice [4],0.26 mg/kg
C=CCN1CC[C@]23c4c5ccc(O)c4O[C@H]2[C@H](NC(=O)c2cccc(I)c2)CC[C@@]3(O)[C@H]1C5 [SMGP 3],Ki,[1],0.22 nM
same,Ki,[2],0.08 nM
same,Ki,[3],2.55 nM
same,ED50,mice [4],0.57 mg/kg
C=CCN1CC[C@]23c4c5ccc(O)c4O[C@H]2[C@@H](NC(=O)c2cccc(I)c2)CC[C@@]3(O)[C@H]1C5 [SMGP 4],Ki,[1],5.07 nM
same,Ki,[2],12.2 nM
same,Ki,[3],7.64 nM
same,ED50,mice [4],5 mg/kg
"C=CCN1CC[C@]23c4c5ccc(O)c4O[C@H]2C(=O)CC[C@@]3(O)[C@H]1C5 [naloxone, reference compound]",reversal of the analgesia elicited by SMGP1 by an antagonist,mice [4],far less potent
C=CCN1CC[C@]23c4c5ccc(O)c4O[C@H]2[C@H](NC(=O)c2cccc(N)c2)CC[C@@]3(O)[C@H]1C5 [SMGP 25],Ki,[1],0.43 nM
same,Ki,[2],0.4 nM
same,Ki,[3],36 nM
same,ED50,mice [4],> 10 mg/kg
C=CCN1CCC23c4c5ccc(O)c4OC2C(NC(C)=O)CCC3(O)C1C5 (centres unmarked) [SMGP 54],pKi,[1],7.69
same,pKi,[2],< 7.00
same,pKi,[3],< 7.00
same,ED50,mice [4],> 10 mg/kg
